Values of other authors, collected in patent US11865247B2, “Inhalers and related methods” (Norton (Waterford) Limited, priority 2017, dated 2024).

Q: What does the source list for `FCC(F)(F)F` [HFA134a, 1,1,1,2-tetrafluoroethane]?
A: surface tension (as liquid at 25° C.): about 8 mN/m; vapor pressure (at 20° C.): 572 kpa
